Experimental findings from patent US20230145342A1, “COMBINATORY TREATMENT” (AALTO UNIVERSITY FOUNDATION SR, priority 2020, published 2023) are described below.

Entries after “also recorded” stand apart in the source; their conditions may differ.

Assay [1] has as its system resistant P. aeruginosa strains PA 5550, PA 5842, PA 5827, PA 5832, PA 5834 and PA 5539. Put plainly: MIC of four antibiotics in presence or absence of P[5]a, Mueller broth. It counts as cell-based, Pseudomonas aeruginosa. As to conditions: six resistant strains, presence vs absence of P[5]a. From the text:
(§1) In FIG. 4 with P. aeruginosa strain PA 5834, P[5]a made the bacterium classify as “susceptible” again, whereas without P[5]a it was fully “resistant” to the antibiotics ceftazidime and cefepime (even growing in the highest concentration we tested). This could have major implications, because there have been many encounters already of “Pan-Drug resistant bacteria” bacteria that are classified as “resistant” to all known antibiotics. They are basically untreatable by current standards. P[5]a Virulence inhibitors, might make those bacteria susceptible again for treatment. In FIG. 5 with P. aeruginosa strain PA 5539, the overall resistance profile of the bacterium was much lower. […] Further testing was done on six resistant P. aeruginosa strains from the Helsinki hospital collection, PA 5550, PA 5842, PA 5827, PA 5832, PA 5834 and PA 5539 with four different antibiotics (amikacin, cefepime, ceftazidime and meropenem).

In assay [2] the test system is Pserudomonas aeruginosa, strain PA01. Nature of the assay: Biofilm formation. The settings on record: P[5]a in high concentrations. It counts as cell-based, Pseudomonas aeruginosa. How it is done:
The effect of P[5]a on the formation of biofilm by a pathogenic Gram-negative bacterium, Pserudomonas aeruginosa, strain PA01 was measured.
Biofilm is, alongside pyocyanin production, an important indicator of virulence in P. aeruginosa.

Assay [3] concerns multidrug resistant P. aeruginosa strain PA 5539. Nature of the assay: MIC of antibiotics without and with P[5]a, Luria broth (sensitizing effect test). It counts as cell-based, Pseudomonas aeruginosa. The settings on record: with vs without P[5]a. As for the experimental part: Values in blue, yellow and orange indicate the bacterium is categorized as “susceptible”, “intermediate susceptible” and “resistant”, respectively, according to the “Performance Standards for Antimicrobial Susceptibility Testing”, which is maintained by the Clinical and Laboratory Standards Institute.
So, it was tested whether P[5]a could sensitize (increase the efficacy of) already resistant P. aeruginosa strains PA 5834 (FIG. 4) and PA 5539 (FIG. 5), that are resistant to a wide variety of antibiotics. To test this, two MDR P. aeruginosa strains from clinical isolates were used. These isolates were obtained from patients in the Meilahti hospital (Helsinki, Finland). The antibiotics used, and their different mechanisms of actions, are described in Table 2.
as §1

For assay [4], the system named is P. aeruginosa PAO1. Put plainly: Pyocyanin toxin production followed over 14 days. Format: cell-based, Pseudomonas aeruginosa. The settings on record: for pyocyanin toxin formation: throughout 14 days. An excerpt:
(§2) The effect of P[5]a on encountering resistance development in a pathogenic Gram-negative bacterium, Pserudomonas aeruginosa, strain PA01 was studied over 14-day period. The development of resistance over 14 continuous days by the pathogen PAO1 towards treatment with four clinically relevant antibiotics (meropenem, cefepime, aztreonam and tobramycin) and P[5]a was compared. […] In all antibiotic treatments, reduced susceptibility was observed from day 4 onwards, with complete resistance to all treatments after 12 days.

For assay [5], the system named is MDR resistant clinical isolates. Put plainly: Coadministered antibiotics with P[5]a in MDR resistant clinical isolates (Example 8). It counts as cell-based. From the text: The effect of P[5]a on the penetration and efficacy of coadministered antibiotics Amikacin (a), Cefepime (b), Ceftazidime (c) and Meropenem (d) in MDR resistant clinical isolates were studied.

Another assay concerns Pseudomonas aeruginosa. Nature of the assay: RNA sequencing / Gene Set Enrichment Analysis with and without P[5]a. The settings on record: bacterial RNA with vs without P[5]a. Format: cell-based. From the text:
Changes in gene expression levels are grouped in specific “gene sets”, which group all genes related to a specific function, for instance biofilm formation.
Pseudomonas aeruginosa is known to be one of the most problematic pathogenic micro-organisms. Indeed, in a laboratory environment, P. aeruginosa is resistant to nearly all antibiotics within a period of 3 to 4 days. Comparing the sequencing results of the bacterial RNA, with and without a pillarene[5]a (P[5]a, CAS No. 1351445-28-7), allowed the inventors to identify the processes that are affected by comparison with pre-determined gene set terms from the “KEGG pathway analysis” and the “GO Ontology” (see FIG. 1). These gene sets contain all the genes associated with a certain term, for instance “Biofilm”, and the inventors referenced all the genes affected by P[5]a, to these gene sets.

Assay [6] concerns P. aeruginosa PAO1. Nature of the assay: Antibiotic resistance buildup, daily MIC over 14 consecutive days. It counts as cell-based, Pseudomonas aeruginosa.
From the text: Area below the yellow line means that the bacterium is classified as susceptible to the antibiotic. The area in between yellow and red means that the bacterium is intermediate susceptible to the antibiotic. The area above the red line means that the bacterium is classified as resistant to the antibiotic (According to the “Performance Standards for Antimicrobial Susceptibility Testing”, which is maintained by the Clinical and Laboratory Standards Institute).
Because of this, a combined administration of P[5]a with a variety of antibiotics was tested. MIC values with two different antibiotics, meropenem and cefepime (FIG. 2) were tested, over a period of 14 consecutive days (which more than surpasses the length of normal treatments, 7-10 days), when administered together with and without 2.5 mM P[5]a.
In this experiment, the minimum inhibitory concentration MIC was analyzed daily for 14 consecutive days, and the highest MIC values (so the highest concentration of antibiotic where the bacteria still grew) was used for the next day. This way, the buildup of resistance over time can be monitored. In FIG. 2, the area below the yellow line means that the bacterium is classified as susceptible to the antibiotic, the area in between yellow and red means that the bacterium is intermediate susceptible to the antibiotic and the area above the red line means that the bacterium is classified as resistant to the antibiotic (According to the “Performance Standards for Antimicrobial Susceptibility Testing”, which is maintained by the Clinical and Laboratory Standards Institute).
as §2
The effect of P[5]a on the enhancement of the penetration of coadministered antibiotics having intracellular targets (aztreonam, cefepime, meropenem and tobramycin) was studied over 14-day period in a pathogenic Gram-negative bacterium, Pserudomonas aeruginosa, strain PA01. […] MIC values were categorized in three groups according to the Clinical and Laboratory Standards Institute: susceptible, intermediate susceptible and resistant.

The nature of assay [7]: Analytical ultracentrifuge sedimentation velocity analysis of P[5]a with LPS. Format: binding, Pseudomonas aeruginosa. As to conditions: 135 μM P[5]a and 35 μM LPS, UV absorbance at 305 nm. As for the experimental part:
A clear initial peak of unbound P[5]a can be observer at low molecular weight (2260 Da), followed by a long and polydisperse collection of peaks, ranging from low molecular weight (S), to very high molecular weight (60.000 kDa) See Example 6.
The interaction of P[5]a with lipopolysaccharides of P. aeruginosa, strain PA10 was measured using AUC.
Analytical ultracentrifugation (AUC) is based on sedimentation of colloidal particles in a centrifugal field. During centrifugation particles move toward the bottom of the measuring cell. This movement leads to redistribution of particles along the measuring cell, which in turn can be expressed as a change in concentration along the measuring cell. The absorbance detector was used to follow the changes caused by centrifugation (absorbance is proportional to concentration). In simple words, in AUC the inventors measure how concentration changes during centrifugation, so they collect concentration profiles. Interaction between particles can be measured as a result of changes in the sedimentation profiles. […]
The spectra of both P[5]a and LPS from P. aeruginosa were first analysed separately (see FIG. 12 a and b). […] Because only the sedimentation of P[5]a was detected at 305 nm, the inventors were certain that any changes observed in the sedimentation profile, come from interactions between P[5]a and other particles. […]

For `C[N+](C)(C)CCOc1cc2c(OCC[N+](C)(C)C)cc1Cc1cc(OCC[N+](C)(C)C)c(cc1OCC[N+](C)(C)C)Cc1cc(OCC[N+](C)(C)C)c(cc1OCC[N+](C)(C)C)Cc1cc(OCC[N+](C)(C)C)c(cc1OCC[N+](C)(C)C)Cc1cc(OCC[N+](C)(C)C)c(cc1OCC[N+](C)(C)C)C2.[Br-].[Br-].[Br-].[Br-].[Br-].[Br-].[Br-].[Br-].[Br-].[Br-]` [P[5]a, 4,9,14,19,24,26,28,30,32,34-Deca[2-(trimethylammonio)ethoxy]hexacyclo[21.2.2.2^3,6.2^8,11.2^13,16.2^18,21]pentatriaconta1(25),3,5,8,10,13,15,18,20,23,26,28,30,32,34-pentadecaene ⋅ 10bromide], in assay [1], the “sensitizing effects on amikacin, cefepime, ceftazidime and meropenem” value is recorded as “In all cases the sensitizing effects were observed”. Also, the biofilm formation result in assay [2] is recorded as “significantly reduced”. In addition, the “sensitizing effect on antibiotics” value in assay [3] is reported as “sensitizing effect could be seen with nearly all antibiotics”. The “resistance development towards P[5]a (decrease of effectivity of toxin inhibition)” value in the assay on P. aeruginosa PAO1 [4] (14-day period) is listed as “does not encounter resistance development; also recorded: no observable decrease of effectivity”. Besides, the pyocyanin toxin formation entry in the assay on P. aeruginosa PAO1 [4] is recorded as “successfully suppressed”; in the assay on P. aeruginosa PAO1 [4] (listed as P5a) it was “very efficient in suppressing”. In addition, the bacterial viability entry in the assay with P. aeruginosa PAO1 [4] (throughout 14 days of P[5]a treatment) is “no decrease”. The “penetration and efficacy of coadministered antibiotics Amikacin, Cefepime, Ceftazidime and Meropenem” value in assay [5] was “enhances”. Moreover, the “bacterial antibiotic resistance genes (MexCD-OprJ, MexAB-OprM, mexXY)” value with Pseudomonas aeruginosa is given as “significantly down-regulates”. Also, the “gene sets associated with virulence factors (Biofilm, Quorum Sensing, Bioverdine biosynthetic process, Biosynthesis of Secondary Metabolites)” value in the assay on Pseudomonas aeruginosa (KEGG and GO gene sets) is recorded as “downregulated”. The direct antimicrobial properties entry in the assay with P. aeruginosa PAO1 [6] is reported as “lacks direct antimicrobial properties”. Further, the “buildup of resistance to meropenem and cefepime when P[5]a is added” value in the assay on P. aeruginosa PAO1 [6] (2.5 mM P[5]a, 14 consecutive days) is reported as “significantly reduced”. In addition, in assay [7], the “interaction with LPS” value is “strong interaction; also recorded: capable of interacting with multiple LPS particles”.
